The results in this text go back to patent US20120149101A1, “METHODS AND KITS FOR REGULATING INTRACELLULAR TRAFFICKING OF A TARGET PROTEIN” (INSTITUT CURIE, priority 2009, published 2012).

The target in test [1] is T1, interaction between SBP-Tag and Streptavidin (Streptomyces avidinii, UniProt P22629, L133T/T100R/V149R/V79T).
T1 construct: expressed in transfected cells; host or cells: HeLa cells, transient transfection of the hook-IRES-reporter plasmid
The experiment in a line: RUSH^L[ID]: release of SBP-tagged reporters from the hook Ii-Core streptavidin, by immunofluorescence and time-lapse imaging. Format: cell-based, human. On the procedure: The Reporter ST-SBP-GFP is retained in the ER in cells expressing the hook Ii-Core streptavidin. Biotin is added at time 00:00 (min sec) and the release of the reporter is followed by time-lapse fluorescent imaging using a spinning disk equipped confocal microscope at 37° C. The Reporter starts to be visible in the Golgi apparatus in a very short time (9:30) and labels massively the Golgi apparatus by 30 minutes.
The Reporter SBP-GFP-Ecadherin is retained in the ER in cells expressing the hook Ii-Core streptavidin. Biotin is added at time 00:00 (min:sec) and the release of the reporter is followed by time-lapse fluorescent imaging using a spinning disk equipped confocal microscope at 37° C. The Reporter is visualized using GFP as a detection domain. Significant quantities of the reporter are visible in the Golgi apparatus from 03:30 and continue to increase. The reporter starts to be visible at the plasma membrane around 30:00. Note that transport intermediates (in the form of punctuate staining) are visible at early (ER to Golgi) and late (Golgi to plasma membrane) time points.
(§1) Hela cells were grown at 37° C. in DMEM (Invitrogen) supplemented with L-glutamine, Sodium Pyruvate and 10% Fetal Calf Serum. For transient transfection, cells were plated on coverslips in 150-mm culture dishes and transfected with 25 μg of the plasmid hook-IRES-reporter using the calcium phosphate precipitation method, in presence of 25 mM HEPES. After 4 hours, cells were washed out with fresh medium and incubated overnight in presence of 3.1 nM Rapamycin (Sigma). Then cells were washed out 3 times with medium, and incubated in prewarmed medium with 3.3 μM FK506 (Cayman) and […] cycloheximide (CHX) for several time points. For each time point, 1 mL of medium containing FK506 and CHX was added into a well of a 12-well plate. Then cells were fixed with 4% PAF and processed for fluorescent microscopy. In the streptavidin/SBP set-up, transfection is done similarly but no addition is done when washing the cells after transfection. After 1-hours, biotin (10 μM) is added to induce reporter release. Then cells are then processed as in the MD set-up.
Cells were fixed in paraformaldehyde 3% for 15 min, washed in PBS (Phosphate Buffer Saline) and free aldehydes were quenched in NH4Cl 50 mM for 5 min. Cells were then permeabilized in PBS containing Bovine Serum Albumine (BSA 0.5%) and Saponine (Sapo 0.05%) [PBS/BSA/Sapo] for 20 min and incubated with primary antibodies (human anti-Giantin, Nizak et al. 2003, Moutel et al., 2009) in the same buffer for 30 min Cells were washed in PBS and incubated in PBS/BSA/Sapo with fluorescently labelled secondary antibodies (Jackson Immunoresearch) for 20 min Nuclei were counter-stained with DAPI (4′,6-Diamidino-2-phenylindole, Sigma-Aldrich). Cells were finally washed in PBS before being mounted in Mowiol (Sigma-Aldrich) and observed by fluorescent microscopy.
A hook was constructed using the ER localized Ii33 fused to monomeric Streptavidin (SEQ ID NO:3) (FRAP of the construct from Example 1 is replaced by monomeric Streptavidin). The reporter was the Golgi localization domain of Sialyl Transferase as used in Example 1. The Hook and reporter were co-expressed in cells and the two domains, streptavidin and SBP-tag interact by default, preventing ST transport to the Golgi apparatus. Release of ST was achieved using moderate concentration of free biotin (around 1-10 μM).

Test [2] deals with T2, interaction between SBP and core streptavidin (Streptomyces avidinii, UniProt P22629).
T2 construct: the FRAP domain is replaced by Core streptavidin which was amplified by PCR; expressed in transfected cells; host or cells: HeLa cells, transient transfection of the hook-IRES-reporter plasmid
The experiment in a line: RUSH^C[ID]: release of the reporter TMD22 from the hook TMD17-streptavidin. It is filed as cell-based, human. The note with it: upon biotin addition; cytoplasmic topology. On the procedure:
as §1
Cells were fixed in paraformaldehyde 3% for 15 min, washed in PBS (Phosphate Buffer Saline) and free aldehydes were quenched in NH4Cl 50 mM for 5 min. […]

Where [3] appears, read: upon biotin addition, surface anti-GFP.

Structures are written as SMILES.

T1 sequence (P22629 25-183 V79T/T100R/L133T/V149R limits assumed): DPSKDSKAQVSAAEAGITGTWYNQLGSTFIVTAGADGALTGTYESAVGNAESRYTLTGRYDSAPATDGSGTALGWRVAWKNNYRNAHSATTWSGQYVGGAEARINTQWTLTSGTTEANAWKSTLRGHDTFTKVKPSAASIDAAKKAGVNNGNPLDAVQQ
T2 sequence (P22629 with tags, fused parts or gaps): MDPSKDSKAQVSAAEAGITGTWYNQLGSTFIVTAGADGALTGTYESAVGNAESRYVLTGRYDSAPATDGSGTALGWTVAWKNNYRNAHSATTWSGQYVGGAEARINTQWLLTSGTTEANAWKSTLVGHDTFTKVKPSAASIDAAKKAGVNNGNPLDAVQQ

Take `O=C(O)CCCC[C@@H]1SC[C@@H]2NC(=O)N[C@@H]21` [Biotin, D-Biotin]: the “time by which reporter labels massively the Golgi apparatus” value in test [1] (reporter ST-SBP-GFP, biotin added at 00:00, 37° C.) is at most 30 min. For the same molecule, the “concentration of free biotin achieving release of ST” value in test [1] (reporter ST, hook Ii33-Streptavidin) lay within 1 to 10 µM. Also, the “release of reporters ST-SBP-GFP and ManII-SBP-mCherry to the Golgi apparatus” value in test [1] (upon addition of biotin) was “they both reach the Golgi apparatus”. Moreover, in test [1] (setting [3]), the “release of reporter SBP-GFP-Ecadherin to the plasma membrane” value is “the reporter is released and reaches its target plasma membrane compartment”; the “release of reporter SBP-GFP-VSV-G to the plasma membrane” value is “the reporter is released and reaches its target plasma membrane compartment”. Moreover, the “release of reporter TMD22 toward the plasma membrane” value in test [2] was “release was observed”.
